Experimental data from PubChem BioAssay AID1918953 (Molecular Pharmacology Branch, DTP, NCI, 2023).
Where “and” joins values, the source holds several entries; their conditions need not be identical. Equal values may be shown once. Values belong to the compound of their own block, whether it stands above or below them.

Tested on: MDA-MB-231 complex spheroid viability
Assay: Anticancer human tumor MDA-MB-231/ATCC cell line growth inhibition;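 further: drug exposure lasted 7 days starting on day 3 of spheroid growth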
Settings: for viability, T/C: stronger effect = lower value
Summary of the method: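 Multicellular complex spheroids of tumor cells with human endothelial cells (HUVEC) and mesenchymal stem cells; the LSD1 inhibitor iadademstat was combined with standard-of-care or investigational agents. Top concentration at or near clinical Cmax, half-log dilutions; final DMSO ≤0.25%.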

[1] = curve of first compound, second compound 0.1 µM
[2] = curve of first compound, second compound 0.316 µM
[3] = curve of first compound, second compound 1 µM
[4] = curve of first compound, second compound 3.16 µM
[5] = curve of first compound, second compound 10 µM

- IC50 (curve of compound): 7610 nM and 5060 nM
Compound: CC1(C)CCC(CN2CCN(c3ccc(C(=O)NS(=O)(=O)c4ccc(NCC5CCOCC5)c([N+](=O)[O-])c4)c(Oc4cnc5[nH]ccc5c4)c3)CC2)=C(c2ccc(Cl)cc2)C1
- viability, T/C (compound 0.0316 µM): 109%
- viability, T/C (compound 0.1 µM): 105% and 107%
- viability, T/C (compound 0.316 µM): 100% and 114%
- viability, T/C (compound 1 µM): 103% and 123%
- viability, T/C (compound 3.16 µM): 102% and 83.3%

- IC50 (curve of compound): 1280 nM and 1530 nM
Compound: CC1COCCN1c1cc(C2(S(C)(=N)=O)CC2)nc(-c2ccnc3[nH]ccc23)n1 (stereo not given)
- viability, T/C (compound 0.0316 µM): 105% and 111%
- viability, T/C (compound 0.1 µM): 98.6% and 111%
- viability, T/C (compound 0.316 µM): 79.9% and 109%
- viability, T/C (compound 1 µM): 53.7% and 62%
- viability, T/C (compound 3.16 µM): 36.3% and 31.3%
- viability, T/C (compound 10 µM): 28.1% and 24%

Further lines, the compound ahead of its results:

Compound: O=C(c1cc(Cc2n[nH]c(=O)c3ccccc23)ccc1F)N1CCN(C(=O)C2CC2)CC1 + NC1CCC(NC2CC2c2ccccc2)CC1
- IC50 [1]: > 10000 nM
- IC50 [2]: > 10000 nM
- IC50 [3]: > 10000 nM
- IC50 [4]: 7580 nM
- IC50 [5]: 2460 nM
- viability, T/C (second compound 0.1 µM, first compound 0.0316 µM): 101%
- viability, T/C (second compound 0.1 µM, first compound 0.1 µM): 94.5%
- viability, T/C (second compound 0.1 µM, first compound 0.316 µM): 87.5%
- viability, T/C (second compound 0.1 µM, first compound 1 µM): 79.3%
- viability, T/C (second compound 0.1 µM, first compound 3.16 µM): 66.8%
- viability, T/C (second compound 0.1 µM, first compound 10 µM): 56.2%
- viability, T/C (second compound 0.316 µM, first compound 0.0316 µM): 98.9%
- viability, T/C (second compound 0.316 µM, first compound 0.1 µM): 102%
- viability, T/C (second compound 0.316 µM, first compound 0.316 µM): 93.5%
- viability, T/C (second compound 0.316 µM, first compound 1 µM): 82.1%
- viability, T/C (second compound 0.316 µM, first compound 3.16 µM): 66.1%
- viability, T/C (second compound 0.316 µM, first compound 10 µM): 52.7%
- viability, T/C (second compound 1 µM, first compound 0.0316 µM): 93.1%
- viability, T/C (second compound 1 µM, first compound 0.1 µM): 94.5%
- viability, T/C (second compound 1 µM, first compound 0.316 µM): 84.3%
- viability, T/C (second compound 1 µM, first compound 1 µM): 74.5%
- viability, T/C (second compound 1 µM, first compound 3.16 µM): 67.1%
- viability, T/C (second compound 1 µM, first compound 10 µM): 57.6%
- viability, T/C (second compound 3.16 µM, first compound 0.0316 µM): 80.8%
- viability, T/C (second compound 3.16 µM, first compound 0.1 µM): 77.5%
- viability, T/C (second compound 3.16 µM, first compound 0.316 µM): 74.2%
- viability, T/C (second compound 3.16 µM, first compound 1 µM): 70.2%
- viability, T/C (second compound 3.16 µM, first compound 3.16 µM): 56.8%
- viability, T/C (second compound 3.16 µM, first compound 10 µM): 47.9%
- viability, T/C (second compound 10 µM, first compound 0.0316 µM): 64.4%
- viability, T/C (second compound 10 µM, first compound 0.1 µM): 61.9%
- viability, T/C (second compound 10 µM, first compound 0.316 µM): 63%
- viability, T/C (second compound 10 µM, first compound 1 µM): 55.3%
- viability, T/C (second compound 10 µM, first compound 3.16 µM): 47.4%
- viability, T/C (second compound 10 µM, first compound 10 µM): 37.6%

Compound: CC[C@@]1(O)C(=O)OCc2c1cc1n(c2=O)Cc2cc3c(CN(C)C)c(O)ccc3nc2-1
- viability, T/C (compound 0.000316 µM): 89.7% and 88.6%
- viability, T/C (compound 0.001 µM): 64.9% and 65.5%
- viability, T/C (compound 0.00316 µM): 39.1% and 39.5%
- viability, T/C (compound 0.01 µM): 25.3% and 25.9%
- viability, T/C (compound 0.0316 µM): 17.1% and 22.8%
- viability, T/C (compound 0.1 µM): 10.3% and 16%
- IC50 (curve of compound): 1.99 nM and 2.01 nM

Compound: Nc1ccccc1NC(=O)c1ccc(CNC(=O)OCc2cccnc2)cc1 + NC1CCC(NC2CC2c2ccccc2)CC1
- IC50 [1]: 62.2 nM
- IC50 [2]: 65.8 nM
- IC50 [3]: 50.7 nM
- IC50 [4]: 38.5 nM
- IC50 [5]: 26.3 nM
- viability, T/C (second compound 0.1 µM, first compound 0.00949 µM): 89.4%
- viability, T/C (second compound 0.1 µM, first compound 0.03 µM): 61%
- viability, T/C (second compound 0.1 µM, first compound 0.0949 µM): 39%
- viability, T/C (second compound 0.1 µM, first compound 0.3 µM): 31.5%
- viability, T/C (second compound 0.1 µM, first compound 0.949 µM): 15.9%
- viability, T/C (second compound 0.1 µM, first compound 3 µM): 3.58%
- viability, T/C (second compound 0.316 µM, first compound 0.00949 µM): 86.2%
- viability, T/C (second compound 0.316 µM, first compound 0.03 µM): 64.6%
- viability, T/C (second compound 0.316 µM, first compound 0.0949 µM): 39.6%
- viability, T/C (second compound 0.316 µM, first compound 0.3 µM): 29.4%
- viability, T/C (second compound 0.316 µM, first compound 0.949 µM): 16.3%
- viability, T/C (second compound 0.316 µM, first compound 3 µM): 2.82%
- viability, T/C (second compound 1 µM, first compound 0.00949 µM): 85%
- viability, T/C (second compound 1 µM, first compound 0.03 µM): 58%
- viability, T/C (second compound 1 µM, first compound 0.0949 µM): 37%
- viability, T/C (second compound 1 µM, first compound 0.3 µM): 26.4%
- viability, T/C (second compound 1 µM, first compound 0.949 µM): 14.3%
- viability, T/C (second compound 1 µM, first compound 3 µM): 2.97%
- viability, T/C (second compound 3.16 µM, first compound 0.00949 µM): 72.7%
- viability, T/C (second compound 3.16 µM, first compound 0.03 µM): 54.1%
- viability, T/C (second compound 3.16 µM, first compound 0.0949 µM): 35.7%
- viability, T/C (second compound 3.16 µM, first compound 0.3 µM): 20.6%
- viability, T/C (second compound 3.16 µM, first compound 0.949 µM): 10.1%
- viability, T/C (second compound 3.16 µM, first compound 3 µM): 1.4%
- viability, T/C (second compound 10 µM, first compound 0.00949 µM): 63.2%
- viability, T/C (second compound 10 µM, first compound 0.03 µM): 47.7%
- viability, T/C (second compound 10 µM, first compound 0.0949 µM): 32.2%
- viability, T/C (second compound 10 µM, first compound 0.3 µM): 15.1%
- viability, T/C (second compound 10 µM, first compound 0.949 µM): 7.15%
- viability, T/C (second compound 10 µM, first compound 3 µM): 0.5%
